Measurements published in ChEMBL document CHEMBL1201862, “PubChem BioAssay data set” (2004).
Structures can show the parent of a compound that is named as a salt. The source made the active and inactive calls. Rule as the data show it, for most assays here: actives have a measured IC50 and inactives only a lower limit.

Legend:
Assay type in all cases: functional
[1] = target: T1, Sentrin-specific protease 7 (Homo sapiens, UniProt Q9BQF6);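 also: Luminescence-based dose-response confirmation of ultra-high-throughput screening hits, measuring inhibition of SENP7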
T1 sequence (Q9BQF6 whole entry): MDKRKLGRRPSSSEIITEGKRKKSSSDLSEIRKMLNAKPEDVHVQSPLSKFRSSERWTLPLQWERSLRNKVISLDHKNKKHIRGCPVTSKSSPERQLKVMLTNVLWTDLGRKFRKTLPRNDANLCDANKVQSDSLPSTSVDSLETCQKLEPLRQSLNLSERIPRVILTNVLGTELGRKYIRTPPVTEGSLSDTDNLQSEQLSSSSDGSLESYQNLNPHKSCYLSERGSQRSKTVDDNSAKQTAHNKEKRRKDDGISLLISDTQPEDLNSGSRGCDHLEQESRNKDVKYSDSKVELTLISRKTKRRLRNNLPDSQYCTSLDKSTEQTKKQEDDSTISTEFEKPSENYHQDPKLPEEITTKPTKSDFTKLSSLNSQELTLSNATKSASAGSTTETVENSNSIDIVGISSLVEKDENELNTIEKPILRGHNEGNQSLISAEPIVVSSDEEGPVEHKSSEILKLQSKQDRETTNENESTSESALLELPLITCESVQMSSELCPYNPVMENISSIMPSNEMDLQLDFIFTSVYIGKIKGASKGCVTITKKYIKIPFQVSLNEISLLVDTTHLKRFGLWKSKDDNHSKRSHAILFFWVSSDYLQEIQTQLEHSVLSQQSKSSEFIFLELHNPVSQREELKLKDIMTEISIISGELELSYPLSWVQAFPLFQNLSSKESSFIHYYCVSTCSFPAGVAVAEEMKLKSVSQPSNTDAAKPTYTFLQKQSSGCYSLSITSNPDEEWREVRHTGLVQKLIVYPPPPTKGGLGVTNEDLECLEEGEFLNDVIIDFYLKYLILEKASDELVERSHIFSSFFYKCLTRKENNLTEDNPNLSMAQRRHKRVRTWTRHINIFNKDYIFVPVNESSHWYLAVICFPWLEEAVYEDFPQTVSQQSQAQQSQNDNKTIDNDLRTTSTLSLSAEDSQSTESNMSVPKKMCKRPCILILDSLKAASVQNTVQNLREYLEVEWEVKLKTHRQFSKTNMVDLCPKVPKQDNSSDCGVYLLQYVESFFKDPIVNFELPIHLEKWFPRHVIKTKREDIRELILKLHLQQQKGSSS

[2] = target: T2, Sentrin-specific protease 6 (Homo sapiens, UniProt Q9GZR1);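 also: Luminescence-based dose-response confirmatory assay of SENP6 inhibition, following up an ultra-high-throughput screen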
T2 sequence (Q9GZR1 whole entry): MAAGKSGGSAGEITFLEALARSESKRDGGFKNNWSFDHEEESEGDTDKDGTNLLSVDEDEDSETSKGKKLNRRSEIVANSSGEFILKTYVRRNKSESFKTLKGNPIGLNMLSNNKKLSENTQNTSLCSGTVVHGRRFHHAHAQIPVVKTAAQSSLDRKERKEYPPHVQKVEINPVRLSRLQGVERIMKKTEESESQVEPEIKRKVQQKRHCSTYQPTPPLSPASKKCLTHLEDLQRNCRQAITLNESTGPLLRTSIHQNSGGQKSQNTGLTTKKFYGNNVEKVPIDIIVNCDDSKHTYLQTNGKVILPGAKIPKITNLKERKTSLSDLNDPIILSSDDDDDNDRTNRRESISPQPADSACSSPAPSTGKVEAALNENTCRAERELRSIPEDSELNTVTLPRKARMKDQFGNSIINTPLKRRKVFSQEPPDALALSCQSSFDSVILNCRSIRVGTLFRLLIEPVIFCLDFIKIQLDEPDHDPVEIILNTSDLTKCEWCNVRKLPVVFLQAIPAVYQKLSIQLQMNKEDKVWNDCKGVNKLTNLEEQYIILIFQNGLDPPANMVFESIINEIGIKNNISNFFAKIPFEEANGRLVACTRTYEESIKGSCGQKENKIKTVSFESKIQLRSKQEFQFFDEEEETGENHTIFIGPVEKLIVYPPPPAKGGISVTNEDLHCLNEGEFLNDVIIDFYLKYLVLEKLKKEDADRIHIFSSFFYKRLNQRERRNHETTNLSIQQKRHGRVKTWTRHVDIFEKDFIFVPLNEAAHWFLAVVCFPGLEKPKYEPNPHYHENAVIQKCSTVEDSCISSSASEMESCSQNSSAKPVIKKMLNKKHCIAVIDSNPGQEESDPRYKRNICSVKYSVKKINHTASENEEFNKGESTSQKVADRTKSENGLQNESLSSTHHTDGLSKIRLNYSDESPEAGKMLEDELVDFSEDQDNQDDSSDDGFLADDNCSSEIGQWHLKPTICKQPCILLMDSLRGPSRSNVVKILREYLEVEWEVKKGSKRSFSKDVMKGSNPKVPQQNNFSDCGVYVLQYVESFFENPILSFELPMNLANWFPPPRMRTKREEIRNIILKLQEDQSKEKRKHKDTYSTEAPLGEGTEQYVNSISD

[3] = target: T3, Short transient receptor potential channel 4 (Mus musculus, UniProt Q9QUQ5); assay: mouse TRPC4 channel activators, dose response, cell-based, HEK293 TRPC4/mu-opioid, Fluo-4 calcium (AID 434937)
T3 sequence (Q9QUQ5 whole entry): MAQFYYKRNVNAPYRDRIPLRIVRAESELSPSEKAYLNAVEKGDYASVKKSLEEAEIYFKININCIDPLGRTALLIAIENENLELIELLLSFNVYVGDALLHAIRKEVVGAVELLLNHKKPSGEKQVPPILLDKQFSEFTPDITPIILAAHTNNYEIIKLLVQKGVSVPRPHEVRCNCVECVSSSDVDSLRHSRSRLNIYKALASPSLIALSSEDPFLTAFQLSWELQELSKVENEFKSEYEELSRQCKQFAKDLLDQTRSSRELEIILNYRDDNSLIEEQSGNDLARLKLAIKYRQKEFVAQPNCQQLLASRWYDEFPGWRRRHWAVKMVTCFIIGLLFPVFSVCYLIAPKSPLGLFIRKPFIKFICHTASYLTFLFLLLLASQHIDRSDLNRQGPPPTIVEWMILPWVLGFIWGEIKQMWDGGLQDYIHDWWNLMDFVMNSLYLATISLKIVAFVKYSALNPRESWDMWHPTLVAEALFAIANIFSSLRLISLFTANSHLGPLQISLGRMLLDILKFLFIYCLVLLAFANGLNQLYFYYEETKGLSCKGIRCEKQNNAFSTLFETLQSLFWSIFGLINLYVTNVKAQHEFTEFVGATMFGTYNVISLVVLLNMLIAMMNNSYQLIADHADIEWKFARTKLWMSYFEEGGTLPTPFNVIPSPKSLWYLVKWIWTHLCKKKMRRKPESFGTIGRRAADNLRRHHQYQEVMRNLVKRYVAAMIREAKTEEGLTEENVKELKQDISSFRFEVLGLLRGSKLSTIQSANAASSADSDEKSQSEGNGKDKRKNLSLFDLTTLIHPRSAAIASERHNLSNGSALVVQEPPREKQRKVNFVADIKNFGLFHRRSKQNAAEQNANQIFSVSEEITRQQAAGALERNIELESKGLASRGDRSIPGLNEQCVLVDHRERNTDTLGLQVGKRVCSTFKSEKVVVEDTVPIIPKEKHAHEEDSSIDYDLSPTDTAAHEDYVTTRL

| Structure (SMILES) | IC50 [1] | IC50 [2] | EC50 [3] |
| --- | --- | --- | --- |
| CCC(C)n1c(NC(=O)c2ccccc2)c(C#N)c2nc3ccccc3nc21 (stereo unspecified) | 2.82 µM (active) | 0.984 µM (active) |  |
| CC[C@@H](CO)NC(=O)[C@@H]1C=C2c3cccc4c3c(cn4C)C[C@H]2N(C)C1 [METHYSERGIDE MALEATE] |  |  | 1.5 µM (active) |
| CCN1/C(=C\c2ccc3ccccc3[n+]2CC)Sc2cc(C)ccc21 |  |  | 4.73 µM (active) |
| O=C(CCl)Oc1ccc2occ(C(=O)c3cccs3)c2c1 | 10.7 µM (active) | 30.7 µM (active) |  |
